Patent US20240149298A1, “PREPARATION OF HYDROPHOBIC SURFACES” (Technion Research & Development Foundation Limited, priority 2021, published 2024)

What was measured:
[1] = test system: E. coli; test: Antimicrobial properties of fatty acid powders in liquid medium, drop-plate method; format: cell-based, Escherichia coli; conditions: 50 milligram SFA powder per 1 mL suspension, 24 hours at 37° C.; control 1.2 ± 0.2 · 10^8
Procedure: (§1) Antimicrobial studies: The antimicrobial properties of fatty acid powders were evaluated by in liquid medium via the drop-plate method. One bacteria colony (E. coli or L. innocua) was incubated overnight in 4 mL Nutrient Broth (NB) liquid medium (Sigma Aldrich, Israel) at 37° C. under agitation (150 rpm) until the bacteria reached a stationary phase (about 10^9 CFU/mL). Then, the overnight bacteria culture was diluted in fresh NB medium (about 10^7 CFU/mL) and incubated for an additional 2 hours to achieve a logarithmic culture. Next, the logarithmic culture was diluted to 10^4 CFU mL^−1 in 1:100 NB medium.
(§2) 1 mL of the diluted bacterial suspension was incubated with 50 milligram of different SFA powders at 37° C. for 24 hours in 24-well-plates under agitation (100 rpm). The cultures were decimally diluted and 10 μL drops were transferred onto NB solid agar substrate. The colonies were counted after 24 hours incubation at 37° C.
(§3) To study the intrinsic bactericidal effect of the tested SFAs against both Gram-positive and Gram-negative bacteria, incubation of bacteria culture with powdered SFAs followed by colony counting was performed. Table 3 hereinbelow presents E. coli and L. innocua count in colony-forming unit (CFU) per milliliter, estimated by the drop-plate method following incubation for 24 hours at 37° C. with the SFA powders in respective liquid media.

[2] = Wetting properties: water contact angle (CA) of fatty acid coatings; format: physicochemical; conditions: for Contact angle [°] (about 5% RSD): sprayed on stainless steel, room temperature; for Contact angle [°] (N = 3) / Contact angle [°]: spray coating; for Contact angle [°]: N = 5
Procedure: Wetting properties of the coatings were characterized by CA and CAH measurements, which were performed using an Attension Theta Lite tensiometer and high-purity water or ethylene glycol (99.5%, Merck, Germany) droplets of 7 μL volume. Spray coating was performed by spraying a selected organic solution of a selected fatty acid or a selected mixture of fatty acids on a desired surface using commercially available spraying gun. Gun adjustment is required to obtain the optimal coating properties. Exemplary adjustment parameters included distance from the treated surface, which was optimal at around 30 cm, and pulse duration, which was optimal at 1-5 seconds (e.g., 1-2 seconds). Other parameters are described hereinabove. […] Roughness (RMS) and wettability measurements were performed as described hereinabove.

[3] = Roughness (RMS) of spray-deposited fatty acid layer, dynamic confocal microscope; format: physicochemical; conditions: for Roughness [μm] (about 10% RSD): sprayed on stainless steel, room temperature; for Roughness [μm] (N = 3) / Roughness [μm]: spray coating; for Roughness [μm]: N = 5
Procedure: Roughness and coating thickness were measured using a dynamic confocal microscope (Leica DCM3D); data processing was performed using SensoMap Turbo software. The coating thickness was calculated as the difference in height between the lower and upper levels of a confocal profile measured after a scratch implementation on the coating using a 25G needle. Spray coating was performed by spraying a selected organic solution of a selected fatty acid or a selected mixture of fatty acids on a desired surface using commercially available spraying gun. Gun adjustment is required to obtain the optimal coating properties. Exemplary adjustment parameters included distance from the treated surface, which was optimal at around 30 cm, and pulse duration, which was optimal at 1-5 seconds (e.g., 1-2 seconds). Other parameters are described hereinabove. Exemplary solutions were sprayed onto a surface of stainless steel, at room temperature. Roughness (RMS) and wettability measurements were performed as described hereinabove.

[4] = test system: L. innocua; test: Antimicrobial properties of fatty acid powders in liquid medium, drop-plate method; format: cell-based, Listeria innocua; conditions: 24 hours at 37° C.; for L. innocua [CFU mL^−1]: 50 milligram SFA powder per 1 mL suspension, control 2.4 ± 0.2 · 10^5; for L. innocua growth inhibition: powdered SFA
Procedure: as §1, §2, §3

[5] = test system: Botrytis cinerea; test: Anti-fungal effect of neat fatty acids on PDA agar plates; format: cell-based; conditions: neat fatty acid at centre of PDA plate, 24° C., 72 hours
Procedure: Anti-fungal studies: Botrytis cinerea (B. cinerea) isolate B05.10 was collected from Vitis vinifera. Botrytis cinerea spores were plated on potato dextrose agar (PDA) plates, each fatty acid powder was placed in the center of the plate, and the plates were then incubated at 24° C. for 72 hours. In the case of caprylic acid, a hole was punched in the middle of the agar plate in order to contain its liquid form.

[6] = Contact angle hysteresis (CAH) of spray-coated fatty acid coatings; format: physicochemical; conditions: spray coating
Procedure: Wetting properties of the coatings were characterized by CA and CAH measurements, which were performed using an Attension Theta Lite tensiometer and high-purity water or ethylene glycol (99.5%, Merck, Germany) droplets of 7 μL volume.

[7] = test system: Botrytis cinerea; test: Ex-planta rose petals, damaged area after Botrytis cinerea spore droplets; conditions: thick, medium and thin sprayed layers; 10^4 spores per milliliter, 30 μL droplets, 72 hours, room temperature
Procedure: Botrytis cinerea culture was diluted in potato dextrose broth (PDB) medium to a final concentration of 10^4 spores per milliliter. 30 μL droplets were put on the coated leaves and uncoated control leaves and left in room temperature protected from light for 72 hours. A damaged area can be observed below and surrounding each droplet. The damaged area was then measured using a caliper along its long and the short directions.

[8] = Diethyl ether (Tb 36.4), 50 mg/ml
[9] = Diethyl ether (Tb 36.4), 50 mg/ml, listed as palmitic acid
[10] = Diethyl ether (Tb 36.4), 20 mg/ml

## CCCCCCCCCCCCCCCCCCCC(=O)O [Arachidic acid]
[1]
  E. coli [CFU mL^−1]: 9.6 ± 3.2 · 10^7 CFU mL^−1
[2]; Acetone, 2 mg/ml
  Contact angle [°] (about 5% RSD): 134 °
[2]; Diethyl ether, 10 mg/ml
  Contact angle [°] (about 5% RSD): 152 °
[2]; EtOH, 1 mg/ml
  Contact angle [°] (about 5% RSD): 119 °
[3]; Acetone, 2 mg/ml
  Roughness [μm] (about 10% RSD): 2.7 μm
[3]; Diethyl ether, 10 mg/ml
  Roughness [μm] (about 10% RSD): 4.3 μm
[3]; EtOH, 1 mg/ml
  Roughness [μm] (about 10% RSD): 0.9 μm
[4]
  L. innocua [CFU mL^−1]: 0 CFU mL^−1
  L. innocua growth inhibition: completely inhibited

## CCCCCCCCCCCCCCCCCCCCCC(=O)O [Behenic acid]
[2]; Diethyl ether, 2 mg/ml
  Contact angle [°] (about 5% RSD): 156 °
[5]
  anti-fungal effect against Botrytis cinerea growth: do not present any anti-fungal effect
[3]; Diethyl ether, 2 mg/ml
  Roughness [μm] (about 10% RSD): 4.2 μm

## CCCCCCCCCCCC(=O)O [Lauric acid]
[2]; EtOH, 10 mg/ml
  Contact angle [°] (about 5% RSD): 113 °
[3]; EtOH, 10 mg/ml
  Roughness [μm] (about 10% RSD): 5.2 μm

## CCCCCCCCCCCCCC(=O)O [Myristic acid]
[2]; Acetone, 10 mg/ml
  Contact angle [°] (about 5% RSD): 120 °
[2]; Diethyl ether, 20 mg/ml
  Contact angle [°] (about 5% RSD): 132 °
[2]; EtOH, 10 mg/ml
  Contact angle [°] (about 5% RSD): 115 °
[3]; Acetone, 10 mg/ml
  Roughness [μm] (about 10% RSD): 4.2 μm
[3]; Diethyl ether, 20 mg/ml
  Roughness [μm] (about 10% RSD): 5.6 μm
[3]; EtOH, 10 mg/ml
  Roughness [μm] (about 10% RSD): 4.7 μm

## CCCCCCCCCCCCCCCC(=O)O [Palmitic acid]
[1]
  E. coli [CFU mL^−1]: 1.4 ± 0.6 · 10^8 CFU mL^−1
[6]; [8]
  CAH [°] (N = 3): 11.1 ± 4.6 °
[6]; [9]
  CAH [°] (N = 3): 11.1 °
[7]
  protection of rose petals against damage by Botrytis cinerea: most effectively inhibit damage propagation
[2]; [8]
  Contact angle [°] (N = 3): 156.6 ± 2.3 °
[2]; [9]
  Contact angle [°] (N = 3): 156.6 °
[2]; spray-coated
  CA angle: above 150 °
[2]; Acetone, 15 mg/ml
  Contact angle [°] (about 5% RSD): 140 °
[2]; Diethyl ether, 10 mg/ml
  Contact angle [°] (about 5% RSD): 145 °
[2]; Diethyl ether, 20 mg/ml
  Contact angle [°] (about 5% RSD): 148 °
[2]; EtOH, 10 mg/ml
  Contact angle [°] (about 5% RSD): 111 °
[2]; MeOH, 10 mg/ml
  Contact angle [°] (about 5% RSD): 137 °
[2]; thermally deposited on glass
  CA: below 140 °
[5]
  anti-fungal effect against Botrytis cinerea growth: do not present any anti-fungal effect
[3]; [8]
  Roughness [μm] (N = 3): 4.4 ± 0.4 μm
[3]; Acetone, 15 mg/ml
  Roughness [μm] (about 10% RSD): 5.0 μm
[3]; Diethyl ether, 10 mg/ml
  Roughness [μm] (about 10% RSD): 3.2 μm
[3]; Diethyl ether, 20 mg/ml
  Roughness [μm] (about 10% RSD): 4.8 μm
[3]; EtOH, 10 mg/ml
  Roughness [μm] (about 10% RSD): 2.3 μm
[3]; MeOH, 10 mg/ml
  Roughness [μm] (about 10% RSD): 3.6 μm
[4]
  L. innocua [CFU mL^−1]: 1.7 ± 0.5 · 10^4 CFU mL^−1
  L. innocua growth inhibition: inhibited by an order of magnitude

## CCCCCCCCCCCCCCCCCC(=O)O [Stearic acid]
[1]
  E. coli [CFU mL^−1]: 1.8 ± 0.05 · 10^8 CFU mL^−1
[6]; Acetone (Tb 56.0), 10 mg/ml
  CAH [°] (N = 3): 2.3 ± 1.2 °
[6]; Acetone (Tb 56.0), 20 mg/ml
  CAH [°] (N = 3): 2.0 ± 1.7 °
[6]; [10]
  CAH [°] (N = 3): 2.2 ± 1.1 °
[6]; [8]
  CAH [°] (N = 3): 1.7 ± 1.4 °
[6]; EtOH (Tb 78.4), 10 mg/ml
  CAH [°] (N = 3): 27.5 ± 7.0 °
[6]; EtOH (Tb 78.4), 20 mg/ml
  CAH [°] (N = 3): 11 ± 1.2 °
[2]; 0.02 gram/ml in diethyl ether plus coloring agent, spray-coated on glass
  effect of adding a food coloring agent on water contact angle: no change in water contact angle
[2]; Acetone (Tb 56.0), 10 mg/ml
  Contact angle [°] (N = 3): 156.4 ± 1.5 °
[2]; Acetone (Tb 56.0), 20 mg/ml
  Contact angle [°]: 156.5 ± 5.5 °
[2]; [10]
  Contact angle [°]: 165.3 ± 1.1 °
[2]; [8]
  Contact angle [°] (N = 3): 165.7 ± 4.4 °
[2]; EtOH (Tb 78.4), 10 mg/ml
  Contact angle [°] (N = 3): 113.2 ± 4.6 °
[2]; EtOH (Tb 78.4), 20 mg/ml
  Contact angle [°]: 118.3 ± 5.8 °
[2]; Acetone, 5 mg/ml
  Contact angle [°] (about 5% RSD): 145 °
[2]; Acetone, 20 mg/ml
  Contact angle [°] (about 5% RSD): 156 °
[2]; Diethyl ether, 15 mg/ml
  Contact angle [°] (about 5% RSD): 149 °
[2]; Diethyl ether, 20 mg/ml
  Contact angle [°] (about 5% RSD): 165 °
[2]; EtOH, 5 mg/ml
  Contact angle [°] (about 5% RSD): 110 °
[2]; EtOH, 20 mg/ml
  Contact angle [°] (about 5% RSD): 118 °
[2]; MeOH, 4 mg/ml
  Contact angle [°] (about 5% RSD): 136 °
[3]; Acetone (Tb 56.0), 10 mg/ml
  Roughness [μm] (N = 3): 11.9 ± 3.7 μm
[3]; Acetone (Tb 56.0), 20 mg/ml
  Roughness [μm]: 7.5 ± 0.9 μm
[3]; [10]
  Roughness [μm]: 6.1 ± 1.0 μm
[3]; [8]
  Roughness [μm] (N = 3): 8.0 ± 0.6 μm
[3]; EtOH (Tb 78.4), 10 mg/ml
  Roughness [μm] (N = 3): 1.5 ± 0.06 μm
[3]; EtOH (Tb 78.4), 20 mg/ml
  Roughness [μm]: 1.1 ± 0.1 μm
[3]; Acetone, 5 mg/ml
  Roughness [μm] (about 10% RSD): 1.3 μm
[3]; Acetone, 20 mg/ml
  Roughness [μm] (about 10% RSD): 7.5 μm
[3]; Diethyl ether, 15 mg/ml
  Roughness [μm] (about 10% RSD): 5.7 μm
[3]; Diethyl ether, 20 mg/ml
  Roughness [μm] (about 10% RSD): 6.1 μm
[3]; EtOH, 5 mg/ml
  Roughness [μm] (about 10% RSD): 0.7 μm
[3]; EtOH, 20 mg/ml
  Roughness [μm] (about 10% RSD): 1.1 μm
[3]; MeOH, 4 mg/ml
  Roughness [μm] (about 10% RSD): 3.5 μm
[4]
  L. innocua [CFU mL^−1]: 1.9 ± 0.5 · 10^4 CFU mL^−1
  L. innocua growth inhibition: inhibited by an order of magnitude

## CCCCCCCC(=O)O [caprylic acid, Caprylic acid]
[5]
  anti-fungal effect against Botrytis cinerea growth: complete inhibition

## C/C=C/C=C/C(=O)O [sorbic acid]
[2]; preliminary tests, data not shown
  properties of sprayed coating as single component: hydrophilic coating which was not stable over time
[5]
  anti-fungal effect against Botrytis cinerea growth: significant growth inhibition
